Here are results for 2 compounds from paper PMC5026118 (Journal of pharmaceutical sciences, 2016).

A short description of the series: Aqueous solubility determination at room temperature. In kind it is physicochemical. The note with it: water; for log Sw (mg/ml) / Sw (log) Experimental: aqueous solubility of the hydrate, room temperature; for Sw (log) Experimental: value in brackets.

Turning to `Sc1ncnc2nc[nH]c12` [Mercaptopurine, mercaptopurine monohydrate], the “log Sw (mg/ml)” value is listed as −0.93 log mg/ml and the “Sw (log) Experimental” value is −0.93 log mg/ml. In addition, for the setting “thermodynamic from solid”, the solubility (thermodynamic) (as a rule, solubility found after equilibrating the solid with the medium) at 48 h was 120 µg/mL.

As to `O=c1c(O)c(-c2cc(O)c(O)c(O)c2)oc2cc(O)cc(O)c12` [Myricetin, Myricetin (MYR) monohydrate], the “log Sw (mg/ml)” value was −3.19 log mg/ml and the “Sw (log) Experimental” value is −3.19 log mg/ml.
